The results in this text go back to publication PMC7887208 (2021).

The test system of assay [1] is d(AAGAATTCTT)2 ("AATT") (DNA, duplex) AAGAATTCTT
Put plainly: 1H and 31P NMR titration. Particulars: 0.1 M NaCl; 10 mM sodium phosphate pH 7.0, 15 °C; external interaction, no intercalation.

Assay [2] deals with Pu22T14T23 (DNA, G4) TGAGGGTGGGTAGGGTGGGTAA
Kind of assay: 1H NMR titration and NOESY. The following applies: 70 mM KCl.

Assay [3] has the same test system. Kind of assay: ligand fluorescence titration, EQUISPEC fit. The following applies: 3 µM ligand, 1:1 model.
For assay [4] the test system is unchanged. Kind of assay: reverse fluorescence titration (DNA titrated with ligand), EQUISPEC fit. Particulars: 70 mM KCl; 25 mM phosphate pH 6.9, 20 °C; 2.4 µM DNA; overall constant of 1:2 model.
Assay [5] deals with d(TTAGGGT)4 (DNA, G4) TTAGGGT. Kind of assay: ligand fluorescence titration, EQUISPEC fit. The following applies: 3 µM ligand, 1:1 model.
Assay [6] deals with d(TTAGGGT)4 (DNA, G4) TTAGGGT. Put plainly: 1H NMR titration and NOESY. The following applies: 150 mM KCl; 25 mM K-phosphate pH 6.7, 1 mM EDTA, 25 °C; sites A3-G4 and over G6.
Assay [7] relates to d(CGTACG)2 ("CG") (DNA, duplex) CGTACG. Put plainly: 1H and 31P NMR titration. Particulars: 0.1 M NaCl; 10 mM sodium phosphate pH 7.0, 15 °C; partial intercalation.
Where [8] appears, read: 70 mM KCl, 25 mM phosphate pH 6.9, 20 °C.

Take `NC(=O)Cn1ccc2ccc(-c3ccc(CN4CCCC4)cc3)nc21`: the binding entry is “weak” in assay [1]; “yes” in assay [2] (25 mM phosphate pH 6.9, 25 °C, stacks on 5' and 3' end tetrads); “yes” in assay [3] (PBS (Na+; composition not given), PBS, 20 °C, stated similar to K+ buffer); “yes” in assay [6]; “weak” in assay [7]. The Kb is reported as ~ 10^6.1 M^-1 in assay [3] (setting [8]); ~ 10^6.1 M^-1 in assay [5] (setting [8]); ~ 10^5.1 M^-1 in assay [5] (PBS (Na+; composition not given), PBS, 20 °C, printed as d(TTAGGG)4). Moreover, the “overall Kb” value in assay [4] was 10^12.8 M^-2.

`C[C@]1(c2nc3c(C(N)=O)cccc3[nH]2)CCCN1`: the binding result in assay [2] (25 mM KH2PO4 pH 6.9, 25 °C, no shift change, no NOE) is listed as “no”.
